According to the NIST ThermoML archive (doi:10.1021/acs.jced.5b00549):

Assay: mn = molality of the nth substance listed, in mol/kg
Conditions: 100 kPa, Liquid; for viscosity: Capillary tube (Ostwald / Ubbelohde) method; for speed of sound: Frequency=3 MHz, Sing-around technique in a fixed-path interferometer; for mass density: Vibrating tube method

NC(=O)CC[C@H](N)C(=O)O [L-glutamine] + O
Conditions	mass density [kg/m3]	speed of sound [m/s]	viscosity [mPa·s]
293.15 K, m1 = 0.02	999.262	1484	1.012
293.15 K, m1 = 0.04	1000.32	1485.3	1.017
293.15 K, m1 = 0.06	1001.38	1486.9	1.022
293.15 K, m1 = 0.08	1002.44	1488.4	1.027
293.15 K, m1 = 0.1	1003.5	1490.1	1.031
293.15 K, m1 = 0.12	1004.57	1491.8	1.035
293.15 K, m1 = 0.14	1005.63	1493.5	1.039
293.15 K, m1 = 0.16	1006.69	1495.3	1.043
293.15 K, m1 = 0.18	1007.76	1497.2	1.047
293.15 K, m1 = 0.2	1008.82	1499	1.051
298.15 K, m1 = 0.02	998.094	1498	0.8984
298.15 K, m1 = 0.04	999.147	1499.3	0.9028
298.15 K, m1 = 0.06	1000.2	1500.8	0.9067
298.15 K, m1 = 0.08	1001.26	1502.3	0.9104
298.15 K, m1 = 0.1	1002.32	1503.9	0.9143
298.15 K, m1 = 0.12	1003.37	1505.6	0.9175
298.15 K, m1 = 0.14	1004.43	1507.3	0.9212
298.15 K, m1 = 0.16	1005.49	1509	0.9246
298.15 K, m1 = 0.18	1006.56	1510.7	0.9277
298.15 K, m1 = 0.2	1007.62	1512.6	0.9308
303.15 K, m1 = 0.02	996.679	1510.3	0.8039
303.15 K, m1 = 0.04	997.722	1511.6	0.8076
303.15 K, m1 = 0.06	998.771	1513	0.8109
303.15 K, m1 = 0.08	999.819	1514.5	0.8141
303.15 K, m1 = 0.1	1000.87	1516	0.817
303.15 K, m1 = 0.12	1001.92	1517.7	0.82
303.15 K, m1 = 0.14	1002.97	1519.4	0.8224
303.15 K, m1 = 0.16	1004.02	1521	0.8254
303.15 K, m1 = 0.18	1005.09	1522.7	0.8283
303.15 K, m1 = 0.2	1006.14	1524.5	0.8316
308.15 K, m1 = 0.02	995.051	1520.9	0.7243
308.15 K, m1 = 0.04	996.088	1522.2	0.7275
308.15 K, m1 = 0.06	997.129	1523.6	0.7302
308.15 K, m1 = 0.08	998.171	1525	0.7329
308.15 K, m1 = 0.1	999.218	1526.5	0.7352
308.15 K, m1 = 0.12	1000.26	1528.1	0.7379
308.15 K, m1 = 0.14	1001.31	1529.8	0.7405
308.15 K, m1 = 0.16	1002.36	1531.4	0.7425
308.15 K, m1 = 0.18	1003.41	1533.1	0.7448
308.15 K, m1 = 0.2	1004.48	1534.8	0.7469
313.15 K, m1 = 0.02	993.226	1530	0.6569
313.15 K, m1 = 0.04	994.257	1531.3	0.6595
313.15 K, m1 = 0.06	995.294	1532.6	0.6621
313.15 K, m1 = 0.08	996.332	1534	0.6638
313.15 K, m1 = 0.1	997.372	1535.5	0.666
313.15 K, m1 = 0.12	998.413	1537.1	0.6682
313.15 K, m1 = 0.14	999.457	1538.6	0.6702
313.15 K, m1 = 0.16	1000.5	1540.3	0.6716
313.15 K, m1 = 0.18	1001.56	1542	0.674
313.15 K, m1 = 0.2	1002.6	1543.7	0.6759

N[C@@H](Cc1c[nH]cn1)C(=O)O [L-histidine] + O
Conditions	mass density [kg/m3]	speed of sound [m/s]	viscosity [mPa·s]
293.15 K, m1 = 0.02	999.369	1484.4	1.013
293.15 K, m1 = 0.04	1000.53	1486.2	1.019
293.15 K, m1 = 0.06	1001.7	1488	1.025
293.15 K, m1 = 0.08	1002.86	1489.7	1.03
293.15 K, m1 = 0.1	1004.03	1491.5	1.035
293.15 K, m1 = 0.12	1005.19	1493.2	1.04
293.15 K, m1 = 0.14	1006.36	1494.9	1.045
293.15 K, m1 = 0.16	1007.53	1496.6	1.049
293.15 K, m1 = 0.18	1008.71	1498.2	1.054
293.15 K, m1 = 0.2	1009.89	1499.9	1.058
298.15 K, m1 = 0.02	998.178	1498.5	0.8996
298.15 K, m1 = 0.04	999.317	1500.2	0.9048
298.15 K, m1 = 0.06	1000.46	1501.9	0.9091
298.15 K, m1 = 0.08	1001.59	1503.7	0.9138
298.15 K, m1 = 0.1	1002.73	1505.3	0.9175
298.15 K, m1 = 0.12	1003.87	1507	0.9222
298.15 K, m1 = 0.14	1005.02	1508.7	0.9259
298.15 K, m1 = 0.16	1006.16	1510.3	0.9293
298.15 K, m1 = 0.18	1007.32	1512	0.9336
298.15 K, m1 = 0.2	1008.47	1513.6	0.9374
303.15 K, m1 = 0.02	996.746	1510.7	0.8051
303.15 K, m1 = 0.04	997.854	1512.4	0.8093
303.15 K, m1 = 0.06	998.962	1514.1	0.813
303.15 K, m1 = 0.08	1000.07	1515.7	0.8165
303.15 K, m1 = 0.1	1001.18	1517.3	0.8198
303.15 K, m1 = 0.12	1002.29	1519	0.8233
303.15 K, m1 = 0.14	1003.39	1520.5	0.8265
303.15 K, m1 = 0.16	1004.5	1522.2	0.8301
303.15 K, m1 = 0.18	1005.61	1523.7	0.8339
303.15 K, m1 = 0.2	1006.72	1525.3	0.8372
308.15 K, m1 = 0.02	995.102	1521.3	0.7253
308.15 K, m1 = 0.04	996.183	1523	0.7289
308.15 K, m1 = 0.06	997.262	1524.6	0.732
308.15 K, m1 = 0.08	998.34	1526.2	0.7348
308.15 K, m1 = 0.1	999.416	1527.8	0.7378
308.15 K, m1 = 0.12	1000.49	1529.4	0.7407
308.15 K, m1 = 0.14	1001.57	1531	0.7435
308.15 K, m1 = 0.16	1002.64	1532.5	0.7466
308.15 K, m1 = 0.18	1003.72	1534.1	0.7492
308.15 K, m1 = 0.2	1004.78	1535.6	0.7524
313.15 K, m1 = 0.02	993.257	1530.4	0.6578
313.15 K, m1 = 0.04	994.314	1532	0.6608
313.15 K, m1 = 0.06	995.368	1533.5	0.6633
313.15 K, m1 = 0.08	996.42	1535.1	0.666
313.15 K, m1 = 0.1	997.47	1536.7	0.6682
313.15 K, m1 = 0.12	998.515	1538.2	0.6709
313.15 K, m1 = 0.14	999.558	1539.7	0.6734
313.15 K, m1 = 0.16	1000.6	1541.2	0.6756
313.15 K, m1 = 0.18	1001.63	1542.7	0.6783
313.15 K, m1 = 0.2	1002.67	1544.2	0.681

CN(C)C(=N)NC(=N)N.Cl [N,N-dimethylimidodicarbonimidic diamide hydrochloride] + O
Conditions	mass density, m1 = 0.01 [kg/m3]	mass density, m1 = 0.07 [kg/m3]	mass density, m1 = 0.13 [kg/m3]	speed of sound, m1 = 0.01 [m/s]	speed of sound, m1 = 0.07 [m/s]	speed of sound, m1 = 0.13 [m/s]	viscosity, m1 = 0.01 [mPa·s]	viscosity, m1 = 0.07 [mPa·s]	viscosity, m1 = 0.13 [mPa·s]
293.15 K	998.57	1000.83	1003.13	1483.3	1490.2	1496.3	1.01	1.015	1.019
298.15 K	997.402	999.633	1001.9	1497.3	1503.9	1509.7	0.8925	0.899	0.9052
303.15 K	995.993	998.2	1000.45	1509.7	1515.8	1521.3	0.8013	0.8074	0.8126
308.15 K	994.369	996.524	998.785	1520.3	1526	1531.3	0.7245	0.7285	0.7333
313.15 K	992.542	994.71	996.926	1529.4	1534.8	1539.8	0.6566	0.6606	0.6662
